Patent US11420958B2, “Aryl and heteroaryl substituted indole compounds” (BRISTOL-MYERS SQUIBB COMPANY, priority 2017, dated 2022)

Columns and labels:
Type in all cases: cell-based
[1] = target: human TLR8 (Homo sapiens (Human), UniProt Q9NR97); experiment: TLR8 inhibition reporter assay (HEK-Blue, SEAP); conditions: HEK-Blue cells overexpressing human TLR8, R848 15.9 μM stimulation
In short: (§1)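 Reporter cells, NF-κB/AP-1-driven SEAP; cmpd 0.05 nM–50 μM final, 30 min RT pre-treat; stim gardiquimod 7.5 μM (TLR7), R848 15.9 μM (TLR8), ODN2006 5 nM (TLR9); 22 h 37 °C; % inhibition of SEAP signal.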

[2] = target: human TLR7 (Homo sapiens (Human), UniProt Q9NYK1); experiment: TLR7 inhibition reporter assay (HEK-Blue, SEAP); conditions: HEK-Blue cells overexpressing human TLR7, gardiquimod 7.5 μM stimulation
In short: as §1

[3] = target: human TLR9 (Homo sapiens (Human), UniProt Q9NR96); experiment: TLR9 inhibition reporter assay (HEK-Blue, SEAP); conditions: HEK-Blue cells overexpressing human TLR9, ODN2006 5 nM stimulation
In short: as §1

Chain of human TLR8 (Q9NR97 27-1041): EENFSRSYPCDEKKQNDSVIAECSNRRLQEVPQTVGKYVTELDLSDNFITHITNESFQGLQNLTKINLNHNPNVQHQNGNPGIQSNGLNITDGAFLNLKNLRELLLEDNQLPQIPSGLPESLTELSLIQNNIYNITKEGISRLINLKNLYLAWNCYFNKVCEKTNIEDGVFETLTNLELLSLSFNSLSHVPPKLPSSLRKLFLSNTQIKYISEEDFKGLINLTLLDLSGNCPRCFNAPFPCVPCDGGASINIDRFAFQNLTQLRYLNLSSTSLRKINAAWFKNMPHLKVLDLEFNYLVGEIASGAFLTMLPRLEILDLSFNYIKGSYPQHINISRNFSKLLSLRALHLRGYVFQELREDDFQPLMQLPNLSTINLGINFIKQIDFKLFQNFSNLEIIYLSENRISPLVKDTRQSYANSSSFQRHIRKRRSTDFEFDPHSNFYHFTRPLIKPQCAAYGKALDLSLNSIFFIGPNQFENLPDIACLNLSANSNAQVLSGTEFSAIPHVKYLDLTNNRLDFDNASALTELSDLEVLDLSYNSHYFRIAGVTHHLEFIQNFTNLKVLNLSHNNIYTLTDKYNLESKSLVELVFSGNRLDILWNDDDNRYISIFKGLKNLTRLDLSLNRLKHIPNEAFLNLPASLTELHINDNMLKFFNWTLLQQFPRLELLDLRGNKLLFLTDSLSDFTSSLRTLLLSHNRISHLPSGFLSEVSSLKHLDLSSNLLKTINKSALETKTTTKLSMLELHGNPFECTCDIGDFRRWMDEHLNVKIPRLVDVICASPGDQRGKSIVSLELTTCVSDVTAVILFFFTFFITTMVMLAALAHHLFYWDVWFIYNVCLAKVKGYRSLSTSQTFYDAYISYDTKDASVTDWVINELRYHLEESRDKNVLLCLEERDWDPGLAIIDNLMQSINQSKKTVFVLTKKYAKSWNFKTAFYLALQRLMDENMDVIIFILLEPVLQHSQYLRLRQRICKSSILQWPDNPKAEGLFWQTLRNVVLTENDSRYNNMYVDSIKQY
Chain of human TLR7 (Q9NYK1 27-1049): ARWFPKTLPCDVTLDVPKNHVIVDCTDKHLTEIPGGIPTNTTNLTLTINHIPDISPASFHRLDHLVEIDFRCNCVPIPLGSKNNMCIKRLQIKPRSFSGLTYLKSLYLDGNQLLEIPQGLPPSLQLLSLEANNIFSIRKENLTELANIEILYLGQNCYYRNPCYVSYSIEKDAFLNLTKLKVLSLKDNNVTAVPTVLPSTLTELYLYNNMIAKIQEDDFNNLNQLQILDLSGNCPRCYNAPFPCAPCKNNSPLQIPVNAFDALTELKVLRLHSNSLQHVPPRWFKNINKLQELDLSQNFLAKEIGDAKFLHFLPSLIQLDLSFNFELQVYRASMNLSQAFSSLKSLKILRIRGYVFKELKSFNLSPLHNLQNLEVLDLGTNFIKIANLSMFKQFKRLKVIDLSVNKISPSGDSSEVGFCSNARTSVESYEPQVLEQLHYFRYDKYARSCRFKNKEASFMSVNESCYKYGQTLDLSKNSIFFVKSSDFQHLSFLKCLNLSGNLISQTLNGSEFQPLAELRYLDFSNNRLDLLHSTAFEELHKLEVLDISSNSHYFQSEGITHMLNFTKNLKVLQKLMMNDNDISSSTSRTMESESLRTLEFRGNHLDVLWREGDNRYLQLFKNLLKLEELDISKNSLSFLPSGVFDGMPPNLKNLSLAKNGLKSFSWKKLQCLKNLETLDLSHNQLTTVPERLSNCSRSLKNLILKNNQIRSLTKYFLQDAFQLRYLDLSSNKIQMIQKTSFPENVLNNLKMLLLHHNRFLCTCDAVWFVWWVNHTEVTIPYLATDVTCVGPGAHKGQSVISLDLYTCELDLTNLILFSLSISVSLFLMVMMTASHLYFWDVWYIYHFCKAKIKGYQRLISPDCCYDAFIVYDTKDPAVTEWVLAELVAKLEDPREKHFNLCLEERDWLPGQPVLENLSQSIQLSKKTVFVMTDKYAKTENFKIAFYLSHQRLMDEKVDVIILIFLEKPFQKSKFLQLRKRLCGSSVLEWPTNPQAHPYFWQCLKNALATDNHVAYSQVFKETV
Chain of human TLR9 (Q9NR96 26-1032): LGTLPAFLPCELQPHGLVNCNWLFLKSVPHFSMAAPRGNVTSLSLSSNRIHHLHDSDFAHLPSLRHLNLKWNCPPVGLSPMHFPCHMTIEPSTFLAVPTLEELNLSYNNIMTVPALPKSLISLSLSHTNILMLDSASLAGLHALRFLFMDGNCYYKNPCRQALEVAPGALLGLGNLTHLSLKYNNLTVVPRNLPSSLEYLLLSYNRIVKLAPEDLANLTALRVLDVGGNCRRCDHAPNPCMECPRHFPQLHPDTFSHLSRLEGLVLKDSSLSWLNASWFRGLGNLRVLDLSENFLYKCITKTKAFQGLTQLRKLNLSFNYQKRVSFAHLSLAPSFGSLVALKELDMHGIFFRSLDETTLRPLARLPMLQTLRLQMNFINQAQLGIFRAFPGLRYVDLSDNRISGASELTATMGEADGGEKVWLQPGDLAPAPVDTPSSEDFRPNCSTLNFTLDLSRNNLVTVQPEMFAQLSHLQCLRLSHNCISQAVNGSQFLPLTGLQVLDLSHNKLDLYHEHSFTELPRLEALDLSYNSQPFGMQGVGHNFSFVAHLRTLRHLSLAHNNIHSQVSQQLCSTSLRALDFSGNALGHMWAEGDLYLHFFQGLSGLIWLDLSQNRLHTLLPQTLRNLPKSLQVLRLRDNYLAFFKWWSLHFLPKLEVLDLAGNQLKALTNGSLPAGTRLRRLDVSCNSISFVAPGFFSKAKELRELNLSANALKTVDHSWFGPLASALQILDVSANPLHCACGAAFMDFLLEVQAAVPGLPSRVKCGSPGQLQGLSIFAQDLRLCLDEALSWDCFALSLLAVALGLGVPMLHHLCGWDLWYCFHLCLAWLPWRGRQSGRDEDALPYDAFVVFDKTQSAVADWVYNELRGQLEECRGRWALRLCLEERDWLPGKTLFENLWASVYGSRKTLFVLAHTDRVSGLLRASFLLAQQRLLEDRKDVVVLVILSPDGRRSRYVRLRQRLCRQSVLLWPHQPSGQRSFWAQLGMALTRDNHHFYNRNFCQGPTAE

SMILES	IC50 [1] [nM]	IC50 [2] [nM]	IC50 [3] [nM]
CC(C)c1c(-c2ccnc3[nH]ncc23)[nH]c2ccc(-c3noc([C@@H]4CCCNC4)n3)cc12 [Example 462, (R)-3-(3-isopropyl-2-(1H-pyrazolo[3,4-b]pyridin-4-yl)-1H-indol-5-yl)-5-(piperidin-3-yl)-1,2,4-oxadiazole]	4.1	156	1900
COc1ccc(-c2[nH]c3ccc(-c4nnc(CN5CCN(C(C)=O)CC5)o4)cc3c2C(C)C)cc1OC [Example 116, 1-(4-((5-(2-(3,4-dimethoxyphenyl)-3-isopropyl-1H-indol-5-yl)-1,3,4-oxadiazol-2-yl)methyl)piperazin-1-yl)ethan-1-one]	395	331	> 50000
Cc1cc(-c2[nH]c3ccc(-c4nnc(C5CCC(C(F)(F)F)CC5)o4)cc3c2C(C)C)ccn1 (stereo not drawn) [Example 78, 2-(3-isopropyl-2-(2-methylpyridin-4-yl)-1H-indol-5-yl)-5-(4-(trifluoromethyl)cyclohexyl)-1,3,4-oxadiazole]	535	2700	> 50000
COc1ccc(-c2[nH]c3ccc(-c4ccc(C5=CCN(C)CC5)cc4)cc3c2C)cc1OC [Example 376, 2-(3,4-dimethoxyphenyl)-3-methyl-5-(4-(1-methyl-1,2,3,6-tetrahydropyridin-4-yl)phenyl)-1H-indole]	487	2880	2410
Cc1cc(-c2[nH]c3ccc(-c4nnc([C@@H]5CCCN5)o4)cc3c2C(C)C)ccn1 [Example 261, (S)-2-(3-isopropyl-2-(2-methylpyridin-4-yl)-1H-indol-5-yl)-5-(pyrrolidin-2-yl)-1,3,4-oxadiazole]	4.5	162	6280
CCc1c(-c2ccnc(C)c2)[nH]c2ccc(-c3noc(C4CC5(CCNCC5)C4)n3)cc12 [Example 461, 3-(3-ethyl-2-(2-methylpyridin-4-yl)-1H-indol-5-yl)-5-(7-azaspiro[3.5]nonan-2-yl)-1,2,4-oxadiazole]	72	321	1540
COc1ccc(-c2[nH]c3ccc(-c4cnc(N5CCN(CC(C)C)CC5)cc4C)cc3c2C(C)C)cc1OC [Example 418, 2-(3,4-dimethoxyphenyl)-5-(6-(4-isobutylpiperazin-1-yl)-4-methylpyridin-3-yl)-3-isopropyl-1H-indole]	41	879	3540
CC(C)c1c(-c2ccnc3[nH]ncc23)[nH]c2ccc(-c3nnc(CN4CC[C@@H](N(C)C)C4)o3)cc12 [Example 157, (R)-1-((5-(3-isopropyl-2-(1H-pyrazolo[3,4-b]pyridin-4-yl)-1H-indol-5-yl)-1,3,4-oxadiazol-2-yl)methyl)-N,N-dimethylpyrrolidin-3-amine]	18	314	4480
CCOC(=O)N1CCC(NC(=O)c2coc(-c3ccc4[nH]c(-c5cc(C)nc(C)c5)c(C(C)C)c4c3)n2)CC1 [Example 283, ethyl 4-(2-(2-(2,6-dimethylpyridin-4-yl)-3-isopropyl-1H-indol-5-yl)oxazole-4-carboxamido)piperidine-1-carboxylate]	9.3	147	2360
Cc1cc(-c2[nH]c3ccc(-c4nc5c(s4)CN(C(=O)C4CC(=O)N(C)C4)CC5)cc3c2C(C)C)cc(C)n1 (stereo not drawn) [Example 364, 4-(2-(2-(2,6-dimethylpyridin-4-yl)-3-isopropyl-1H-indol-5-yl)-4,5,6,7-tetrahydrothiazolo[5,4-c]pyridine-5-carbonyl)-1-methylpyrrolidin-2-one]	11	20	> 50000
Cc1cc(-c2[nH]c3ccc(-c4nccs4)cc3c2C(C)C)ccn1 [Example 171, 2-(3-isopropyl-2-(2-methylpyridin-4-yl)-1H-indol-5-yl)thiazole]	19	159	> 50000
Cc1cc(-c2[nH]c3ccc(-c4nc(C(=O)NCCCCN5CCCC5)co4)cc3c2C(C)C)cc(C)n1 [Example 285, 2-(2-(2,6-dimethylpyridin-4-yl)-3-isopropyl-1H-indol-5-yl)-N-(4-(pyrrolidin-1-yl)butyl)oxazole-4-carboxamide]	5.6	8.6	466
Cc1cc(-c2[nH]c3ccc(-c4ccc(NC(=O)[C@H]5CCNC5)nc4)cc3c2C(C)C)ccn1 [Example 207, (S)—N-(5-(3-isopropyl-2-(2-methylpyridin-4-yl)-1H-indol-5-yl)pyridin-2-yl)pyrrolidine-3-carboxamide]	14	83	1650

More lines, now with the values ahead:

IC50 [1] [nM]	IC50 [2] [nM]	IC50 [3] [nM]	SMILES
44	969	> 50000	COc1ccc(-c2[nH]c3ccc(-c4ccc(N5CCN(C(C)=O)CC5)nc4)cc3c2C(C)C)cc1OC [Example 390, 1-(4-(5-(2-(3,4-dimethoxyphenyl)-3-isopropyl-1H-indol-5-yl)pyridin-2-yl)piperazin-1-yl)ethan-1-one]
37	69	2160	COc1ccc(-c2[nH]c3ccc(-c4ccnc(C(=O)NC5CCC(N)CC5)c4)cc3c2C(C)C)cc1OC (stereo not drawn) [Example 12, N-(4-aminocyclohexyl)-4-(2-(3,4-dimethoxyphenyl)-3-isopropyl-1H-indol-5-yl)picolinamide]
22	34	3900	COc1ccc(-c2[nH]c3ccc(-c4ccc(OC5CCN(C)CC5)cc4)cc3c2C(C)C)cc1OC [Example 387, 2-(3,4-dimethoxyphenyl)-3-isopropyl-5-(4-((1-methylpiperidin-4-yl)oxy)phenyl)-1H-indole]
71	692	2950	COc1ccc(-c2[nH]c3ccc(-c4ccc(N5CCCN(CCO)CC5)cc4)cc3c2C(C)C)cc1OC [Example 379, 2-(4-(4-(2-(3,4-dimethoxyphenyl)-3-isopropyl-1H-indol-5-yl)phenyl)-1,4-diazepan-1-yl)ethan-1-ol]
2220	2610	> 50000	COc1ccc(-c2[nH]c3ccc(-c4ccc(-c5cccnc5)cc4)cc3c2C(C)C)cc1OC [Example 406, 2-(3,4-dimethoxyphenyl)-3-isopropyl-5-(4-(pyridin-3-yl)phenyl)-1H-indole]
1010	1240	> 50000	COc1ccc(-c2[nH]c3ccc(-c4ccnc(C(=O)N[C@H]5CC[C@H](C(C)(C)O)CC5)c4)cc3c2C(C)C)cc1OC [Example 13, 4-(2-(3,4-dimethoxyphenyl)-3-isopropyl-1H-indol-5-yl)-N-((1r,4r)-4-(2-hydroxypropan-2-yl)cyclohexyl)picolinamide]
464	1560	> 50000	COc1ccc(-c2[nH]c3ccc(-c4ccc(N5CCC(c6ccncc6)CC5)cc4)cc3c2C(C)C)cc1OC [Example 405, 2-(3,4-dimethoxyphenyl)-3-isopropyl-5-(4-(4-(pyridin-4-yl)piperidin-1-yl)phenyl)-1H-indole]
45	136	4630	COc1ccc(-c2[nH]c3ccc(-c4ccc(N5CCN[C@H](C)C5)cc4)cc3c2C(C)C)cc1OC [Example 383, (R)-2-(3,4-dimethoxyphenyl)-3-isopropyl-5-(4-(3-methylpiperazin-1-yl)phenyl)-1H-indole]
